Data on 2 compounds can be found in patent publication US11110141B2, “Herbal compositions for the prevention or treatment of urinary incontinence and overactive bladder” (Rox IP Pty Ltd., priority 2011, dated 2021).

The test system of the series is bladder control problems (urinary frequency, nocturia, stress incontinence, interstitial cystitis). Put plainly: Case studies. The class given is in vivo, human. The protocol:
person with a history of bladder frequency since childhood. They were diagnosed as a child, via cystometric studies, as having a small bladder. They were not medicated.
They presented urinary frequency, every 1.5 hours; nocturia (waking for the toilet at night) every 1.5 to 2.5 hours.
If consumed large quantities of alcohol (greater than 8 standard drinks), would experience flooding nocturesis (bed wetting). […]
person with stress incontinence (2-7 times daily) and urinary frequency (11 times daily). […] When presented, they were using oxybutynin patches (Oxytrol). A specialist recommended that they change patches every 3 days.
Person presented with interstitial cystitis that had been worsening for at least the past 5 years. They presented with penile pain (and some lower abdominal pain) that would increase in intensity the fuller their bladder, with relief on urination. As a result, they would need to urinate at least every 1.5 hours, day and night. If they went too long, the pain would increase to the point where they found it extremely difficult to walk or move. Every month, they would have an episode, usually during the night, where they would pass copious amounts of blood and some mucous from the bladder.
They would also find that every two weeks their symptom severity would increase and they would have “horrific, sharp pain all day every day” for two days. […]

For the compound `CCN(CC)CC#CCOC(=O)C(O)(c1ccccc1)C1CCCCC1` (centres unmarked) [oxybutynin], the “tolerability of previously tried drugs” value (Case 2, patient history) is “could not tolerate the side effects of dry mouth and nasal passages”.

Take `Cc1ccc(O)c([C@H](CCN(C(C)C)C(C)C)c2ccccc2)c1` [Detrol]: where the note is “in vivo”, the “tolerability of previously tried drugs” value is “could not tolerate the side effects of dry mouth and nasal passages”.
